Results from paper PMC10141620 (Viruses, 2023).

What was measured:
in vitro [1] = conditions: human
[2] = tested on: NL4-3ΔEnv-NanoLuc/SARS-CoV-2 (USA-WA1/2020) pseudovirus; experiment: microbe, parasite or virus in culture; type: cell-based; conditions: Pseudovirus
in vitro [3] = conditions: human; remark: listed apart in the source
MERS-CoV, EMC/2012 = experiment: microbe, parasite or virus in culture; type: cell-based; conditions: Middle East respiratory syndrome-related coronavirus, Calu-3, read-out: IC50, MERS-CoV
SARS-CoV-1 Urbani = experiment: microbe, parasite or virus in culture; type: cell-based; conditions: Severe acute respiratory syndrome coronavirus, Calu-3, read-out: IC50, SARS-CoV-1 Urbani
in vitro [4] = conditions: human; remark: listed apart in the source

SMILES	CC50 (in vitro [1])	IC50 ([2]; 293T/ACE2)	IC50 ([2]; A549-ACE2)	CC50 (in vitro [3])	IC50 (MERS-CoV, EMC/2012)	IC50 (SARS-CoV-1 Urbani)	CC50 (in vitro [4])
COc1cc(/C=c2/sc3nc4ccccc4n3c2=O)cc(I)c1OCC(=O)O [NBCoV72]	> 50 µM	> 10 µM	> 10 µM	> 50 µM	–	–	–
O=C(O)c1ccc(-c2ccc(/C=c3/sc4nc5ccccc5n4c3=O)o2)cc1 [NBCoV73]	> 50 µM	> 10 µM	> 10 µM	> 50 µM	–	–	–
O=C(O)c1ccc(Cl)c(-c2ccc(/C=c3/sc4nc5ccccc5n4c3=O)o2)c1 [NBCoV74]	> 50 µM	> 10 µM	> 10 µM	> 50 µM	–	–	–
O=C(O)c1ccc(-c2ccc(/C=c3/sc4nc5ccccc5n4c3=O)o2)cc1Cl [NBCoV75]	> 50 µM	5.2 ± 0.6 µM	3.3 ± 0.7 µM	> 50 µM	–	–	–
O=C(O)c1cc(C(=O)O)cc(-c2ccc(/C=c3/sc4nc5ccccc5n4c3=O)o2)c1 [NBCoV76]	> 50 µM	> 10 µM	> 10 µM	> 50 µM	–	–	–
COc1cc(/C=c2/sc3nc4ccccc4n3c2=O)ccc1OCc1cccc(C(=O)O)c1 [NBCoV77]	> 50 µM	> 10 µM	> 10 µM	> 50 µM	–	–	–
Cc1cc2nc3s/c(=C/c4ccc(-c5ccc(Cl)cc5)o4)c(=O)n3c2cc1C [NBCoV78]	> 50 µM	> 10 µM	8.1 ± 0.2 µM	> 50 µM	–	–	–
Cc1ccc(-c2ccc(/C=c3/sc4nc5ccccc5n4c3=O)o2)cc1Cl [NBCoV79]	> 50 µM	> 10 µM	> 10 µM	> 50 µM	–	–	–
COc1cc(/C=c2/sc3nc4ccccc4n3c2=O)ccc1OCc1nnn[nH]1 [NBCoV80]	> 50 µM	> 10 µM	> 10 µM	> 50 µM	–	–	–
Cc1cc2nc3s/c(=C/c4ccc(-c5ccccc5C(=O)O)o4)c(=O)n3c2cc1C [NBCoV81]	> 50 µM	0.387 ± 0.064 µM	0.459 ± 0.023 µM	> 50 µM	–	–	–
Cc1cc2nc3s/c(=C\c4ccc(-c5ccc(OC(F)(F)F)cc5)o4)c(=O)n3c2cc1C [NBCoV82]	> 50 µM	> 10 µM	> 10 µM	> 50 µM	–	–	–
CCC(CC)COC(=O)[C@H](C)N[P@](=O)(OC[C@H]1O[C@@](C#N)(c2ccc3c(N)ncnn23)[C@H](O)[C@@H]1O)Oc1ccccc1 [Remdesivir, reference compound]	–	–	–	–	17.8 µM	1.08 µM	> 50 µM
